Key:
[1] = biological target: Carbonic anhydrase 9 (Homo sapiens, UniProt Q16790); experiment: Inhibition of recombinant human CA9 using 4-nitrophenylacetate as substrate by esterase assay
[2] = Solubility of compound in water; format: physicochemical; conditions: buffer
[3] = Cytotoxicity against HCEC cells assessed as cell viability at 1% by MTT assay relative to control; format: cell-based; conditions: human, read-out: Activity
[4] = Cytotoxicity against HCEC cells assessed as cell viability at 2 % by MTT assay relative to control; format: cell-based; conditions: human, read-out: Activity
[5] = in vitro; conditions: mouse, liver microsomes
Description: Metabolic stability in mouse liver microsomes assessed as half-life

[6] = in vitro; conditions: mouse, liver microsomes; remark: listed apart in the source
Description: Metabolic stability in mouse liver microsomes assessed as clearance

[7] = biological target: Carbonic anhydrase 1 (Homo sapiens, UniProt P00915); experiment: Inhibition of recombinant human CA1 using 4-nitrophenylacetate as substrate by esterase assay
[8] = species on record: Homo sapiens; experiment: Selectivity ratio of IC50 for inhibition of recombinant human CA1 to IC50 for inhibition of recombinant human CA2 using 4-nitrophenylacetate as substrate by esterase assay
[9] = species on record: Homo sapiens; experiment: Selectivity ratio of IC50 for inhibition of recombinant human CA9 to IC50 for inhibition of recombinant CA2 using 4-nitrophenylacetate as substrate by esterase assay
[10] = biological target: Carbonic anhydrase 2 (Homo sapiens, UniProt P00918)
Description: Inhibition of recombinant human CA2 using 4-nitrophenylacetate as substrate by esterase assay

Sequence of Carbonic anhydrase 1 (P00915 whole entry): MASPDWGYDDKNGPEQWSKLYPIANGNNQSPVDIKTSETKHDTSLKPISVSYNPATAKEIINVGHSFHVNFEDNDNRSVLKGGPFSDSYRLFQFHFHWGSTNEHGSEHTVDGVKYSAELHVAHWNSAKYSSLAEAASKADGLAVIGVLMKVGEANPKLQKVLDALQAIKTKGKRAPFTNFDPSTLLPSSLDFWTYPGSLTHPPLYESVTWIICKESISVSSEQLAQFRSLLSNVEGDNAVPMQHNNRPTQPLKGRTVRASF

For `CCCO[C@@H]1O[C@H](CNC(=O)c2ccc(S(N)(=O)=O)cc2)[C@@H](O)[C@H](O)[C@H]1O`, the IC50 [1] was 160 nM, the solubility [2] was 2.1% and the viability at 1 % [3] was 76%. It also gave a viability at 2 % [4] of 71%, a half-life [5] of 59.9 h and a CLint scaled [6] of 1.53 mL/min/kg.
`CCO[C@@H]1O[C@H](CNC(=O)c2ccc(S(N)(=O)=O)cc2)[C@H](O)[C@H](O)[C@H]1O` gave an IC50 [1] of 180 nM, a solubility [2] of 2.1% and a viability at 1 % [3] of 76%. It also gave a viability at 2 % [4] of 71%, a half-life [5] of 61.1 h and a CLint scaled [6] of 1.5 mL/min/kg.
For `CCO[C@@H]1O[C@H](CNC(=O)c2ccc(S(N)(=O)=O)cc2)[C@@H](O)[C@H](O)[C@H]1N`, the IC50 [1] was 220 nM, the solubility [2] was 2.3% and the viability at 1 % [3] was 76%. For the same molecule, the viability at 2 % [4] was 71%, the half-life [5] was 58.6 h and the CLint scaled [6] was 1.56 mL/min/kg.
Work on `CCO[C@@H]1O[C@H](CNC(=O)c2ccc(S(N)(=O)=O)cc2)[C@@H](O)[C@H](O)[C@@H]1O` yielded an IC50 [1] of 200 nM, a solubility [2] of 2% and a viability at 1 % [3] of 76%. The viability at 2 % [4] was 71%, the half-life [5] was 61.6 h and the CLint scaled [6] was 1.48 mL/min/kg.
For `CO[C@@H]1O[C@H](CNC(=O)c2ccc(S(N)(=O)=O)cc2)[C@@H](O)[C@H](O)[C@H]1O`, the IC50 [7] was 2000 nM, the IC50 [1] was 150 nM and the Selectivity ratio [8] was 20. It also gave a Selectivity ratio [9] of 1.5, a solubility [2] of 2.5% and a viability at 1 % [3] of 76%. The viability at 2 % [4] was 71%, the IC50 [10] was 100 nM and the half-life [5] was 58.6 h. The CLint scaled [6] was 1.56 mL/min/kg.
With `CO[C@@H]1O[C@H](CNC(=O)c2ccc(S(N)(=O)=O)cc2)[C@@H](O)[C@H](O)[C@H]1N` the IC50 [7] was 2300 nM, the IC50 [1] was 190 nM and the Selectivity ratio [8] was 19. It also gave a Selectivity ratio [9] of 1.6, a solubility [2] of 2.5% and a viability at 1 % [3] of 76%. The viability at 2 % [4] was 71%, the IC50 [10] was 120 nM and the half-life [5] was 55.8 h. The CLint scaled [6] was 1.64 mL/min/kg.
Molecule `CCO[C@@H]1O[C@H](CNC(=O)c2ccc(S(N)(=O)=O)cc2)[C@@H](O)[C@H](O)[C@H]1O` has an IC50 [1] of 190 nM, a solubility [2] of 2.2% and a viability at 1 % [3] of 76%. For the same molecule, the viability at 2 % [4] was 71%, the half-life [5] was 59.5 h and the CLint scaled [6] was 1.54 mL/min/kg.
With `CCCO[C@@H]1O[C@H](CNC(=O)c2ccc(S(N)(=O)=O)cc2)[C@@H](O)[C@H](O)[C@H]1N` the IC50 [1] was 290 nM, the solubility [2] was 2.2% and the viability at 1 % [3] was 76%. For the same molecule, the viability at 2 % [4] was 71%, the half-life [5] was 64.4 h and the CLint scaled [6] was 1.42 mL/min/kg.
Molecule `CCN[C@H]1CN(CCCOC)S(=O)(=O)c2sc(S(N)(=O)=O)cc21` [BRINZOLAMIDE] has a solubility [2] of 0.05%.
In the case of `CCN[C@H]1C[C@H](C)S(=O)(=O)c2sc(S(N)(=O)=O)cc21` [DORZOLAMIDE], the solubility [2] is reported as 0.67%.
`CCCO[C@@H]1O[C@H](CNC(=O)c2ccc(S(N)(=O)=O)cc2)[C@H](O)[C@H](O)[C@H]1O` gave an IC50 [1] of 220 nM, a solubility [2] of 2.2% and a viability at 1 % [3] of 76%. The viability at 2 % [4] was 71%, the half-life [5] was 66.4 h and the CLint scaled [6] was 1.38 mL/min/kg.
`CO[C@@H]1O[C@H](CNC(=O)c2ccc(S(N)(=O)=O)cc2)[C@H](O)[C@H](O)[C@H]1O` gave an IC50 [7] of 2700 nM, an IC50 [1] of 200 nM and a Selectivity ratio [8] of 45. For the same molecule, the Selectivity ratio [9] was 3.3, the solubility [2] was 2.1% and the viability at 1 % [3] was 76%. The viability at 2 % [4] was 71%, the IC50 [10] was 60 nM and the half-life [5] was 60.4 h. For the same molecule, the CLint scaled [6] was 1.52 mL/min/kg.
Work on `O=C(O)Cc1ccccc1Nc1c(Cl)cccc1Cl` [DICLOFENAC] yielded a half-life [5] of 0.667 h and a CLint scaled [6] of 137 mL/min/kg.
`CCCO[C@@H]1O[C@H](CNC(=O)c2ccc(S(N)(=O)=O)cc2)[C@@H](O)[C@H](O)[C@@H]1O` gave an IC50 [1] of 260 nM, a solubility [2] of 2.1% and a viability at 1 % [3] of 76%. The viability at 2 % [4] was 71%, the half-life [5] was 64.5 h and the CLint scaled [6] was 1.42 mL/min/kg.
For `CO[C@@H]1O[C@H](CNC(=O)c2ccc(S(N)(=O)=O)cc2)[C@@H](O)[C@H](O)[C@@H]1O`, the IC50 [7] was 2900 nM, the IC50 [1] was 170 nM and the Selectivity ratio [8] was 41. For the same molecule, the Selectivity ratio [9] was 2.4, the solubility [2] was 2.3% and the viability at 1 % [3] was 76%. It also gave a viability at 2 % [4] of 71%, an IC50 [10] of 70 nM and a half-life [5] of 57.2 h. For the same molecule, the CLint scaled [6] was 1.6 mL/min/kg.
In the case of `CC(=O)Nc1nnc(S(N)(=O)=O)s1` [ACETAZOLAMIDE], the solubility [2] is reported as 0.21%, the viability at 1 % [3] is reported as 40% and the viability at 2 % [4] is reported as 25%.

Reference: ChEMBL document CHEMBL5030561, “Discovery of novel aminosaccharide-based sulfonamide derivatives as potential carbonic anhydrase II inhibitors” (Bioorg Med Chem Lett, 2021)
